According to patent US20100267561A1, “HERBICIDAL PYRIDAZINONE DERIVATIVES” (priority 2007, published 2010):
Read-outs that look alike come from different tables or passages of the source.

Legend:
Assay in all cases: Test B pre-/postemergence plant response
Assay type in all cases: in vivo
[1] = system: velvetleaf (Abutilon theophrasti); conditions: for pest or weed control at 31 g/ha / pest or weed control at 62 g/ha: Abutilon theophrasti, read-out: Plant response rating, Velvetleaf; for pest or weed control at 31 g/ha: 31 g ai/ha; for pest or weed control at 62 g/ha: 62 g ai/ha, 100 complete control
Text: (§1) Seeds of plant species selected from blackgrass (Alopecurus myosuroides), downy bromegrass (Bromus tectorum), green foxtail (Setaria viridis), Italian ryegrass (Lolium multiflorum), wheat (Triticum aestivum), wild oat (Avena fatua), catchweed bedstraw (Galium aparine), bermudagrass (Cynodon dactylon), surinam grass (Brachiaria decumbens), cocklebur (Xanthium strumarium), corn (Zea mays), large crabgrass (Digitaria sanguinalis), woolly cupgrass (Eriochloa villosa), giant foxtail (Setaria faberii), goosegrass (Eleusine indica), johnsongrass (Sorghum halepense), kochia (Kochia scoparia), lambsquarters (Chenopodium album), morningglory (Ipomoea coccinea), eastern black (E.B.) nightshade (Solanum ptycanthum), yellow nutsedge (Cyperus esculentus), pigweed (Amaranthus retroflexus), common ragweed (Ambrosia elation), Russian thistle (Salsola iberica), soybean (Glycine max), common (oilseed) sunflower (Helianthus annuus), and velvetleaf (Abutilon theophrasti) were planted and treated preemergence with test chemicals formulated in a non-phytotoxic solvent mixture which included a surfactant.
(§2) At the same time, plants selected from these crop and weed species and also winter barley (Hordeum vulgare), canarygrass (Phalaris minor), chickweed (Stellaria media) and windgrass (Apera spica-venti) were treated with postemergence applications of some of the test chemicals formulated in the same manner. Plants ranged in height from 2 to 18 cm (1- to 4-leaf stage) for postemergence treatments.
(§3) Plant species in the flooded paddy test consisted of rice (Oryza sativa), umbrella sedge (Cyperus difformis), ducksalad (Heteranthera limosa) and barnyardgrass (Echinochloa crus-galli) grown to the 2-leaf stage for testing. At time of treatment, test pots were flooded to 3 cm above the soil surface, treated by application of test compounds directly to the paddy water, and then maintained at that water depth for the duration of the test. Treated plants and controls were maintained in a greenhouse for 13 to 15 days, after which time all species were compared to controls and visually evaluated. Plant response ratings, summarized in Table B, are based on a scale of 0 to 100 where 0 is no effect and 100 is complete control. A dash (-) response means no test result.

[2] = system: common (oilseed) sunflower (Helianthus annuus); conditions: Preemergence
Text: as §1, §2, §3

[3] = system: giant foxtail (Setaria faberii); conditions: for pest or weed control at 31 g/ha: 31 g ai/ha; for pest or weed control at 62 g/ha: 62 g ai/ha, 100 complete control
Text: as §1, §2, §3

[4] = system: lambsquarters (Chenopodium album); conditions: for pest or weed control at 31 g/ha / pest or weed control at 62 g/ha: Chenopodium album, read-out: Plant response rating, Lambsquarters; for pest or weed control at 31 g/ha: 31 g ai/ha; for pest or weed control at 62 g/ha: 62 g ai/ha, 100 complete control
Text: as §1, §2, §3

[5] = system: catchweed bedstraw (Galium aparine); conditions: Preemergence
Text: as §1, §2, §3

[6] = system: wild oat (Avena fatua); conditions: for pest or weed control at 31 g/ha / pest or weed control at 62 g/ha: Avena fatua, read-out: Plant response rating, Oat, Wild; for pest or weed control at 31 g/ha: 31 g ai/ha; for pest or weed control at 62 g/ha: 62 g ai/ha, 100 complete control
Text: as §1, §2, §3

[7] = system: blackgrass (Alopecurus myosuroides); conditions: for pest or weed control at 31 g/ha: 31 g ai/ha; for pest or weed control at 62 g/ha: 62 g ai/ha, 100 complete control
Text: as §1, §2, §3

[8] = 8 g ai/ha, postemergence, 0-100 scale
[9] = 16 g ai/ha, postemergence, 0-100 scale
[10] = post-emergence, Postemergence, scale 0 to 100
[11] = post-emergence, Postemergence, scale 0 to 100, 0 no effect
[12] = pre-emergence, Preemergence, scale 0 to 100 (0 no effect, 100 complete control)
[13] = pre-emergence, Preemergence, 0 to 100 scale, 0 no effect
[14] = Preemergence, 8 g ai/ha, scale 0 to 100 (0 no effect, 100 complete control)
[15] = Preemergence, 16 g ai/ha, scale 0 to 100
[16] = 8 g ai/ha, scale 0 to 100 (0 no effect, 100 complete control)

In the case of `Cc1nn(C)c(=O)c(-c2nc(-c3ccc(Cl)cc3)sc2C)c1O` [Compound 79, 4-[2-(4-chlorophenyl)-5-methyl-4-thiazolyl]-5-hydroxy-2,6-dimethyl-3(2H)-pyridazinone], the “Velvetleaf plant response rating” value [1, 8] is reported as 0, the “Velvetleaf plant response rating” value [1, 9] is reported as 0 and the pest or weed control at 31 g/ha [1, 10] is reported as 0%. It also gave a pest or weed control at 62 g/ha [1, 11] of 0%, a pest or weed control at 31 g/ha [1, 12] of 0% and a pest or weed control at 62 g/ha [1, 13] of 0%. For the same compound, the “Velvetleaf plant response rating” value [1, 14] was 0, the “Velvetleaf plant response rating” value [1, 15] was 0 and the pest or weed control at 31 g/ha ([2]; Helianthus annuus, pre-emergence, 31 g ai/ha, scale 0 to 100 (0 no effect, 100 complete control), read-out: Plant response rating, Sunflower) was 0%. The pest or weed control at 62 g/ha ([2]; Helianthus annuus, pre-emergence, 62 g ai/ha, 0 to 100 scale, 0 no effect, 100 complete control, read-out: Plant response rating, Sunflower) was 0%, the “Sunflower plant response rating” value [2, 16] was 0 and the “Sunflower plant response rating” value ([2]; 16 g ai/ha, scale 0 to 100) was 0. The “Foxtail, Giant plant response rating” value [3, 8] was 75, the “Foxtail, Giant plant response rating” value [3, 14] was 55 and the “Foxtail, Giant plant response rating” value [3, 15] was 100. The pest or weed control at 16 g/ha ([3]; Setaria faberi, post-emergence, Postemergence, 16 g ai/ha, scale 0 to 100, read-out: Plant response rating, Foxtail, Giant) was 80%, the pest or weed control at 31 g/ha ([3]; Setaria faberi, post-emergence, Postemergence, scale 0 to 100, read-out: Plant response rating, Foxtail, Giant) was 85% and the pest or weed control at 62 g/ha ([3]; Setaria faberi, post-emergence, Postemergence, scale 0 to 100, 0 no effect, read-out: Plant response rating, Foxtail, Giant) was 90%. The pest or weed control at 31 g/ha ([3]; Setaria faberi, pre-emergence, Preemergence, scale 0 to 100 (0 no effect, 100 complete control), read-out: Plant response rating, Foxtail, Giant) was 100%, the pest or weed control at 62 g/ha ([3]; Setaria faberi, pre-emergence, Preemergence, 0 to 100 scale, 0 no effect, read-out: Plant response rating, Foxtail, Giant) was 100% and the “Lambsquarters plant response rating” value [4, 8] was 0. For the same compound, the “Lambsquarters plant response rating” value [4, 9] was 0, the pest or weed control at 31 g/ha [4, 10] was 0% and the pest or weed control at 62 g/ha [4, 11] was 0%. The pest or weed control at 31 g/ha [4, 12] was 20%, the pest or weed control at 62 g/ha [4, 13] was 100% and the “Lambsquarters plant response rating” value [4, 14] was 0. The “Lambsquarters plant response rating” value [4, 15] was 0, the pest or weed control at 31 g/ha ([5]; Galium aparine, pre-emergence, 31 g ai/ha, scale 0 to 100 (0 no effect, 100 complete control), read-out: Plant response rating, Galium) was 0% and the pest or weed control at 62 g/ha ([5]; Galium aparine, pre-emergence, 62 g ai/ha, 0 to 100 scale, 0 no effect, 100 complete control, read-out: Plant response rating, Galium) was 0%. The “Galium plant response rating” value [5, 16] was 0, the “Galium plant response rating” value ([5]; 16 g ai/ha, scale 0 to 100) was 0 and the “Oat, Wild plant response rating” value [6, 8] was 30. For the same compound, the “Oat, Wild plant response rating” value [6, 9] was 45, the pest or weed control at 31 g/ha [6, 10] was 60% and the pest or weed control at 62 g/ha [6, 11] was 98%. The pest or weed control at 31 g/ha [6, 12] was 70%, the pest or weed control at 62 g/ha [6, 13] was 95% and the “Oat, Wild plant response rating” value [6, 14] was 0. For the same compound, the “Oat, Wild plant response rating” value [6, 15] was 0, the “Blackgrass plant response rating” value [7, 8] was 50 and the pest or weed control at 16 g/ha ([7]; Alopecurus myosuroides, post-emergence, Postemergence, 16 g ai/ha, scale 0 to 100, read-out: Plant response rating, Blackgrass) was 50%. It also gave a pest or weed control at 31 g/ha ([7]; Alopecurus myosuroides, post-emergence, Postemergence, scale 0 to 100, read-out: Plant response rating, Blackgrass) of 90%, a pest or weed control at 62 g/ha ([7]; Alopecurus myosuroides, post-emergence, Postemergence, scale 0 to 100, 0 no effect, read-out: Plant response rating, Blackgrass) of 98% and a pest or weed control at 31 g/ha ([7]; Alopecurus myosuroides, pre-emergence, Preemergence, scale 0 to 100 (0 no effect, 100 complete control), read-out: Plant response rating, Blackgrass) of 98%. For the same compound, the pest or weed control at 62 g/ha ([7]; Alopecurus myosuroides, pre-emergence, Preemergence, 0 to 100 scale, 0 no effect, read-out: Plant response rating, Blackgrass) was 100%, the “Blackgrass plant response rating” value [7, 14] was 85 and the “Blackgrass plant response rating” value [7, 15] was 85.
